# Measured values published in patent US11046657B2, “Pyrimidinone derivatives and uses thereof to neutralize the biological activity of chemokines” (Centre National de la Recherche Scientifique (CNRS), priority 2016, dated 2021).
# Assays:
# CXCL12 = settings: cited from earlier work
# MRL/lpr mice = assay: Peripheral hypercellularity in MRL/lpr lupus prone mice; type: in vivo; settings: single i.v. administration, 100 μg/mouse, counted five days later; p <0.05
# Procedure: Effect of compound (1) and classical anti-inflammatory drugs on peripheral hypercellularity in MRL/lpr mice. MRL/lpr mice (11-13 week-old) received intravenously a single administration of either compound (1) or chalcone 4-Phosphate or indicated molecules in saline (100 μg/mouse of each). The control group received saline only. The number of white blood cells (WBCs)/mL was evaluated by counting cells five days later. The results are expressed as the mean reduction of peripheral WBCs percentage+/−SEM. Statistical significance was assessed using the unpaired t-test. n=number of mice/group; ns=non-significant. […]
# The test was as described previously (Schall et al., 2012; Briand et al., 2014). […] After centrifugation, white blood cells (WBCs) resuspended in phosphate buffer saline containing fetal calf serum were stained with acridine orange/propidium iodide and counted using a LUNA FL apparatus (logos Biosystems, Annandale, USA). The number of living WBCs in each group was compared to the one counted in the control group and the decrease of peripheral cell number was calculated. […] The results are expressed as the mean decreased of peripheral WBCs percentage SEM. Statistical differences were determined using the unpaired t test. Statistical results were calculated using the graphPad Prism software.
structure (smiles),measurement,setting,value
"COc1cc(/C=C/C(=O)c2ccc(Cl)cc2)ccc1O [Chalcone-4, (E)-1-(4-Chlorophenyl)-3-(4-hydroxy-3-methoxyphenyl)prop-2-en-1-one, reference compound]",Intracellular calcium responses,CXCL12,inhibits intracellular calcium responses
"COc1cc(-c2cc(-c3ccc(Cl)cc3)nc(=O)[nH]2)ccc1O [compound (1), 4-(4-Chlorophenyl)-6-(4-hydroxy-3-methoxyphenyl)pyrimidin-2(1H)-one]",Peripheral blood hypercellularity (WBCs),MRL/lpr mice,significantly reduce peripheral blood hypercellularity
